Where “and” joins values, the source holds several entries; their conditions need not be identical. Identical values can stand only once. Inconclusive results and toxic doses are left out.
System: L1210 leukemia ip in BDF1 mice, survival T/C
Assay: NCI In Vivo Anticancer Drug Screen. Data for tumor model L1210 Leukemia (intraperitoneal) in B6D2F1 (BDF1) mice
Conditions: endpoint: mean survival time, higher = longer survival
How it was run: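 Transplantable tumor model; survival measured in treated vs vehicle control mice. Value = treated/control.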

[1] = dose: 100.0 mg/kg/injection, schedule: Q04DX003 (ip), vehicle: Klucel (hydroxypropylcellulose) (HPC)
[2] = dose: 100.0 mg/kg/injection, schedule: Q04DX003 (ip), vehicle: saline
[3] = dose: 200.0 mg/kg/injection, schedule: Q04DX003 (ip), vehicle: saline
[4] = dose: 400.0 mg/kg/injection, schedule: Q04DX003 (ip), vehicle: saline
[5] = dose: 100.0 mg/kg/injection, schedule: Q04DX003 (ip), vehicle: saline with Tween-80
[6] = dose: 200.0 mg/kg/injection, schedule: Q04DX003 (ip), vehicle: saline with Tween-80
[7] = dose: 100.0 mg/kg/injection, schedule: Q01DX009 (ip), vehicle: Klucel (hydroxypropylcellulose) (HPC)
[8] = dose: 200.0 mg/kg/injection, schedule: Q01DX009 (ip), vehicle: Klucel (hydroxypropylcellulose) (HPC)
[9] = dose: 50.0 mg/kg/injection, schedule: Q01DX009 (ip), vehicle: Klucel (hydroxypropylcellulose) (HPC)
[10] = dose: 9.0 mg/kg/injection, schedule: Q01DX Z (ip), vehicle: methylcellulose (MC)
[11] = dose: 20.0 mg/kg/injection, schedule: Q01DX Z (ip), vehicle: methylcellulose (MC)
[12] = dose: 100.0 mg/kg/injection, schedule: Q01DX001 (ip), vehicle: saline
[13] = dose: 200.0 mg/kg/injection, schedule: Q01DX001 (ip), vehicle: saline
[14] = dose: 400.0 mg/kg/injection, schedule: Q01DX001 (ip), vehicle: saline

CCOC(=O)C(C)(C)OC(=O)Nc1ccccc1
T/C [1]: 98 % of control
T/C (dose: 200.0 mg/kg/injection, schedule: Q04DX003 (ip), vehicle: Klucel (hydroxypropylcellulose) (HPC)): 91 % of control
T/C (dose: 400.0 mg/kg/injection, schedule: Q04DX003 (ip), vehicle: Klucel (hydroxypropylcellulose) (HPC)): 98 % of control

CC1C(O)c2ccccc2OC1N1CCOCC1 (stereo unspecified)
T/C (dose: 50.0 mg/kg/injection, schedule: Q04DX002 (ip), vehicle: Klucel (hydroxypropylcellulose) (HPC)): 96 % of control
T/C (dose: 100.0 mg/kg/injection, schedule: Q04DX002 (ip), vehicle: Klucel (hydroxypropylcellulose) (HPC)): 100 % of control
T/C (dose: 200.0 mg/kg/injection, schedule: Q04DX002 (ip), vehicle: Klucel (hydroxypropylcellulose) (HPC)): 93 % of control

NC(CSCc1cc(=O)[nH]c(=O)[nH]1)C(=O)O (stereo unspecified)
T/C [2]: 97 % of control
T/C [3]: 97 % of control
T/C [4]: 95 % of control

c1ccc(Pc2ccccc2)cc1
T/C (dose: 100.0 mg/kg/injection, schedule: Q01DX001 (ip), vehicle: saline with Tween-80): 103 % of control
T/C (dose: 100.0 mg/kg/injection, schedule: Q01DX009 (ip), vehicle: saline with Tween-80): 93 % of control
T/C (dose: 200.0 mg/kg/injection, schedule: Q01DX001 (ip), vehicle: saline with Tween-80): 105 % of control
T/C (dose: 200.0 mg/kg/injection, schedule: Q01DX009 (ip), vehicle: saline with Tween-80): 98 % of control
T/C (dose: 400.0 mg/kg/injection, schedule: Q01DX001 (ip), vehicle: saline with Tween-80): 104 % of control

CCCCN(C)/N=N/c1[nH]ncc1C(=O)OC
T/C (dose: 268.0 mg/kg/injection, schedule: Q01DX007 (ip), vehicle: other): 150 % of control
T/C (dose: 600.0 mg/kg/injection, schedule: Q01DX007 (ip), vehicle: other): 88 % of control

O=C1/C(=C/c2ccccc2)CCC2CCCCC12 (stereo unspecified)
T/C [5]: 94 % of control
T/C [6]: 100 % of control
T/C (dose: 400.0 mg/kg/injection, schedule: Q04DX003 (ip), vehicle: saline with Tween-80): 94 % of control

CNC1C(O)C(OC)OC2COC(c3ccccc3)OC21 (stereo unspecified)
T/C [5]: 93 % of control
T/C [6]: 93 % of control

CNC(=O)CO
T/C [2]: 98 % of control
T/C [3]: 103 % of control
T/C [4]: 92 % of control

NNc1c2ccccc2nc2ccccc12
T/C (dose: 0.5 mg/kg/injection, schedule: Q04DX003 (ip), vehicle: Klucel (hydroxypropylcellulose) (HPC)): 103 % of control
T/C (dose: 1.0 mg/kg/injection, schedule: Q04DX003 (ip), vehicle: Klucel (hydroxypropylcellulose) (HPC)): 100 % of control
T/C (dose: 2.0 mg/kg/injection, schedule: Q04DX003 (ip), vehicle: Klucel (hydroxypropylcellulose) (HPC)): 95 % of control

Cc1cccc2cccnc12
T/C (dose: 100.0 mg/kg/injection, schedule: Q01DX001 (ip), vehicle: other): 104 % of control
T/C (dose: 200.0 mg/kg/injection, schedule: Q01DX001 (ip), vehicle: other): 106 % of control
T/C (dose: 400.0 mg/kg/injection, schedule: Q01DX001 (ip), vehicle: other): 98 % of control

Cc1ccc(Cl)c(NC(=O)COc2ccc(Cl)cc2)c1
T/C [7]: 93 % of control
T/C [8]: 94 % of control
T/C (dose: 400.0 mg/kg/injection, schedule: Q01DX009 (ip), vehicle: Klucel (hydroxypropylcellulose) (HPC)): 94 % of control

CC(=O)c1cc2ccccc2o1
T/C (dose: 6.25 mg/kg/injection, schedule: Q04DX003 (ip), vehicle: water): 103 % of control
T/C (dose: 12.5 mg/kg/injection, schedule: Q04DX003 (ip), vehicle: water): 109 % of control
T/C [9]: 92 % of control
T/C (dose: 50.0 mg/kg/injection, schedule: Q04DX003 (ip), vehicle: water): 108 % of control
T/C [7]: 90 % of control
T/C (dose: 100.0 mg/kg/injection, schedule: Q04DX003 (ip), vehicle: water): 112 % of control
T/C [8]: 95 % of control
T/C (dose: 200.0 mg/kg/injection, schedule: Q04DX003 (ip), vehicle: water): 123 % of control

CCN(CC)CCCC(Nc1c2ccc(Cl)cc2nc2ccc(OC)cc12)c1ccc(F)cc1 (stereo unspecified)
T/C [10]: 86 % of control
T/C (dose: 15.0 mg/kg/injection, schedule: Q01DX Z (ip), vehicle: methylcellulose (MC)): 95 % of control
T/C [11]: 86 % of control
T/C (dose: 30.0 mg/kg/injection, schedule: Q01DX Z (ip), vehicle: methylcellulose (MC)): 89 % of control

C[C@]12CC[C@@H]3c4ccc(O)c([N+](=O)[O-])c4CC[C@H]3[C@@H]1CCC2=O
T/C [7]: 97 % of control
T/C [8]: 92 % of control

C/C(=N/NC(N)=O)c1cccc([N+](=O)[O-])c1
T/C [12]: 89 % of control
T/C [13]: 89 % of control
T/C [14]: 93 % of control

COc1ccc(C[n+]2cccc(CNC(=O)COc3ccc(Cl)c(Cl)c3)c2)cc1
T/C (dose: 25.0 mg/kg/injection, schedule: Q04DX003 (ip), vehicle: Klucel (hydroxypropylcellulose) (HPC)): 98 % of control
T/C (dose: 50.0 mg/kg/injection, schedule: Q04DX003 (ip), vehicle: Klucel (hydroxypropylcellulose) (HPC)): 106 % of control
T/C [1]: 107 % of control and 108 % of control

CCCCCCCCC(=O)Nc1nc2c(ncn2C2OC(COC(C)=O)C(OC(C)=O)C2OC(C)=O)c(=O)[nH]1 (stereo unspecified)
T/C (dose: 100.0 mg/kg/injection, schedule: Q01DX005 (ip), vehicle: saline): 92 % of control and 97 % of control
T/C (dose: 200.0 mg/kg/injection, schedule: Q01DX005 (ip), vehicle: saline): 111 % of control and 97 % of control

CCN(CC)Cc1ccc([N+](=O)[O-])cc1
T/C (dose: 100.0 mg/kg/injection, schedule: Q04DX002 (ip), vehicle: saline): 110 % of control
T/C (dose: 200.0 mg/kg/injection, schedule: Q04DX002 (ip), vehicle: saline): 104 % of control

Cc1ccc(C2(CO)OCC(O)C(O)C2O)cc1 (stereo unspecified)
T/C [12]: 100 % of control
T/C [13]: 96 % of control
T/C [14]: 98 % of control

CCCCCCCCCOCCOCCOCCN
T/C (dose: 12.0 mg/kg/injection, schedule: Q01DX009 (ip), vehicle: Klucel (hydroxypropylcellulose) (HPC)): 99 % of control
T/C (dose: 25.0 mg/kg/injection, schedule: Q01DX009 (ip), vehicle: Klucel (hydroxypropylcellulose) (HPC)): 100 % of control
T/C (dose: 25.0 mg/kg/injection, schedule: Q04DX003 (ip), vehicle: saline): 102 % of control
T/C [9]: 100 % of control
T/C (dose: 50.0 mg/kg/injection, schedule: Q04DX003 (ip), vehicle: saline): 96 % of control
T/C [2]: 86 % of control

CC1CN1c1cc(O)c(N2CC2C)cc1O (stereo unspecified)
T/C (dose: 0.25 mg/kg/injection, schedule: Q01DX009 (ip), vehicle: saline): 100 % of control
T/C (dose: 0.5 mg/kg/injection, schedule: Q01DX009 (ip), vehicle: saline): 92 % of control
T/C (dose: 0.5 mg/kg/injection, schedule: Q01DX Z (ip), vehicle: methylcellulose (MC)): 110 % of control
T/C (dose: 0.8 mg/kg/injection, schedule: Q01DX Z (ip), vehicle: methylcellulose (MC)): 111 % of control
T/C (dose: 1.0 mg/kg/injection, schedule: Q01DX009 (ip), vehicle: saline): 118 % of control
T/C (dose: 1.2 mg/kg/injection, schedule: Q01DX Z (ip), vehicle: carboxymethylcellulose (CMC)): 115 % of control
T/C (dose: 1.2 mg/kg/injection, schedule: Q01DX Z (ip), vehicle: methylcellulose (MC)): 109 % of control and 123 % of control
T/C (dose: 1.8 mg/kg/injection, schedule: Q01DX Z (ip), vehicle: carboxymethylcellulose (CMC)): 121 % of control
T/C (dose: 2.0 mg/kg/injection, schedule: Q01DX009 (ip), vehicle: saline): 118 % of control
T/C (dose: 2.7 mg/kg/injection, schedule: Q01DX Z (ip), vehicle: methylcellulose (MC)): 171 % of control
T/C (dose: 4.0 mg/kg/injection, schedule: Q01DX Z (ip), vehicle: carboxymethylcellulose (CMC)): 120 % of control
T/C (dose: 4.0 mg/kg/injection, schedule: Q01DX Z (ip), vehicle: methylcellulose (MC)): 109 % of control and 155 % of control and 212 % of control
T/C (dose: 5.0 mg/kg/injection, schedule: Q01DX009 (ip), vehicle: saline): 150 % of control
T/C (dose: 6.0 mg/kg/injection, schedule: Q01DX Z (ip), vehicle: carboxymethylcellulose (CMC)): 108 % of control
T/C (dose: 6.0 mg/kg/injection, schedule: Q01DX Z (ip), vehicle: methylcellulose (MC)): 172 % of control and 180 % of control
T/C [10]: 155 % of control and 174 % of control
T/C (dose: 10.0 mg/kg/injection, schedule: Q01DX009 (ip), vehicle: saline): 121 % of control
T/C (dose: 13.5 mg/kg/injection, schedule: Q01DX Z (ip), vehicle: methylcellulose (MC)): 114 % of control
T/C (dose: 20.0 mg/kg/injection, schedule: Q01DX009 (ip), vehicle: saline): 101 % of control
T/C [11]: 90 % of control

Reference: PubChem BioAssay AID248 (DTP/NCI, 2004)
